Measured values taken from patent publication US20250327034A1, “CELL CULTURE MEDIUM” (Ajinomoto Co., Inc., priority 2022, published 2025).

Test system: CHO cell
Test: CHO cell fed-batch culture (ambr15) with high L-cysteine feed: antibody yield (Example 6)
Assay type: cell-based, Chinese hamster
Details: CHO cells, 11 mM, 18 mM and 23-24 mM equivalent L-cysteine feed sections
Procedure: Basal media were prepared by adding a final concentration of 4 mM L-Glutamine (Thermo Fisher Scientific: 25030081) to media that were designed on the basis of CELLIST™ Basal media (AJINOMOTO CO., INC.: BASAL10).
Feed Media A were prepared on the basis of the commercially available CELLIST™ Feed media (AJINOMOTO CO., INC.: FEED 2). Feed media A containing a final concentration of 11 or 18 mM L-cysteine and 60 g/L glucose were prepared to have a pH of 6.7-6.9 according to the procedures described in the product instructions for FEED 2.
A 110 mM L-cysteine solution (pH 11.3) was prepared.
Using the prepared basal media, CHO suspensions adjusted to 7×10^5 celllls/mL were cultured for 14 days using the ambr15 cell culture system (Sartorius AG). All of the experimental groups were performed with n=2. […] The antibody yields on day 14 in these conditioned sections were measured using Cedex Bio HT (Roche Diagnostics K.K.)

N[C@@H](CS)C(=O)O [L-cysteine]
Antibody yield on day 14: improves the antibody yield
